# In US11116757B2 (priority 2015, dated 2021):
# Target: DCN1-UBC12 interaction (Homo sapiens (Human), UniProt Q96GG9)
# Experiment: biochemical
# Type: binding
# Details: TR-FRET IC50
# Sequence of DCN1-UBC12 interaction (Q96GG9 60-248 limits assumed): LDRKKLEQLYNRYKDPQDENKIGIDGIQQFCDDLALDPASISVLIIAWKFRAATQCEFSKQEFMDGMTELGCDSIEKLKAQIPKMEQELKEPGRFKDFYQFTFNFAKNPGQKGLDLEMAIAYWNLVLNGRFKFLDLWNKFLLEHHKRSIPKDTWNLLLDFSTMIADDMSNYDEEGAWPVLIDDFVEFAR
row,Compound,IC50
1,COc1ccccc1CN1CCC(N(Cc2ccccc2)C(=O)Nc2cc(F)cc(C(F)(F)F)c2)CC1 [A224],> 25.3 µM
2,CCCC(C)N1CCC(N(Cc2ccccc2)C(=O)Nc2cccc(Cl)c2)CC1 (stereo not drawn) [A35],0.203 µM

# Same assay, conditions: Table 4, commercial compounds; read-out: TR-FRET IC50
row,Compound,IC50
1,COc1ccc(NC(=O)C2CCN(C(=O)N3CCOc4ccccc43)CC2)cc1 [C53],> 67.6 µM
2,Cc1cc(NC(=O)C2CCN(C(=O)c3ccco3)CC2)ccc1Br [C38],> 67.6 µM
3,Cc1cccc(NC(=O)C2CCN(C(=O)c3cccc4ccccc34)CC2)c1 [C63],> 67.6 µM
4,Cc1cccc(NC(=O)C2CCN(C(=O)c3cccc(F)c3)CC2)c1 [C44],> 67.6 µM
5,O=C(Nc1cccc(F)c1)C1CCN(C(=O)c2cnn(-c3ccccc3)c2-n2cccc2)CC1 [C50],> 67.6 µM
6,CCOc1ccccc1NC(=O)C1CCN(C(=O)c2ccc(OC)cc2)CC1 [C47],> 67.6 µM
7,COCC(=O)N1CCC(C(=O)Nc2ccc(-c3cc4ccccc4[nH]3)cc2)CC1 [C46],> 67.6 µM

# Same assay, conditions: Table 6, commercial compounds; read-out: TR-FRET IC50
row,Compound,IC50
1,Cc1c(C(=O)N2CCN(C)CC2)cnn1-c1nccc(-c2cccs2)n1 [E49],> 67.6 µM
2,C=CCN(CC=C)C(=O)c1cnn(-c2ncc(C)c(-c3cccs3)n2)c1C [E48],> 67.6 µM
3,CCN(CC)CCN(CC)C(=O)c1cnn(-c2nccc(-c3cccs3)n2)c1C [E3],7.77 µM
4,Cc1cnc(-n2ncc(C(=O)NCCC(C)C)c2C)nc1-c1cccs1 [E29],> 67.6 µM
5,COCCN(C)C(=O)c1cnn(-c2nccc(-c3cccs3)n2)c1C [E52],> 67.6 µM
6,CCN(CC)C(=O)c1cnn(-c2ncc(C)c(-c3cccs3)n2)c1C1CC1 [E26],65.2 µM

# Same assay, conditions: Table 7, commercial compounds; read-out: TR-FRET IC50
row,Compound,IC50
1,Cc1nn(-c2ccccc2)c2c1C(c1ccc(C(F)(F)F)cc1)C(NC(=O)c1ccccc1)C(=O)N2 (stereo not drawn) [F19],> 67.6 µM
2,Cc1cccc(C(=O)NC2C(=O)Nc3c(c(C)nn3C)C2c2ccc(F)c(Br)c2)c1 (stereo not drawn) [F17],> 67.6 µM
3,CCOc1ccc(C2c3c(C)nn(C)c3NC(=O)C2NC(=O)c2cccc(C)c2)cc1 (stereo not drawn) [F23],> 67.6 µM

# Same assay, conditions: read-out: TR-FRET IC50
row,Compound,IC50
1,CCCC(C)N1CCC(N(Cc2ccccc2)C(=O)Nc2cc(Cl)c(Cl)cc2F)CC1 (stereo not drawn) [A78],0.801 µM
2,O=C(Nc1cc(F)cc(C(F)(F)F)c1)N(Cc1ccccc1)C1CCN(Cc2ccncc2)CC1 [A228],> 28.3 µM
3,COc1ccccc1NC(=O)N(Cc1ccc(C)o1)C1CCN(Cc2ccccc2)CC1 [B90],> 67.6 µM
4,CCCC(C)N1CCC(N(Cc2ccccc2)C(=O)Nc2cc(C)cc(C)c2)CC1 (stereo not drawn) [A98],1.38 µM
5,O=C(Nc1cccc(C(F)(F)F)c1)N(Cc1ccccc1)C1CC2CCC(C1)N2Cc1ccccc1 (stereo not drawn) [A105],1.87 µM
6,O=C(Nc1cc(F)cc(C(F)(F)F)c1)N(Cc1ccccc1)C1CCN(CC2CCOC2)CC1 (stereo not drawn) [A144],4.49 µM
7,CC(=O)N1CCC(N(C(=O)Nc2cccc(C(F)(F)F)c2)C(C)C)CC1 [B65],> 67.6 µM
8,CCCCN1CCC(N(Cc2ccccc2)C(=O)Nc2cnn(C)c2)CC1 [A284],> 72.3 µM
9,CCCCN1C(C)CC(N(Cc2ccccc2)C(=O)Nc2cccc(C(F)(F)F)c2)CC1C (stereo not drawn) [A71],0.589 µM
10,CCCCN1CCC(N(Cc2ccccc2)C(=O)Nc2cccc(C#N)c2)CC1 [A242],> 52.5 µM
11,1-Benzyl-1-(1-(4-Fluorobenzyl)Piperidin-4-yl)-3-(3-(Trifluoromethyl)Phenyl)Urea [A171],12.7 µM
12,CCCCCN1CCC(N(Cc2ccccc2)C(=O)Nc2cc(F)cc(C(F)(F)F)c2)CC1 [A124],1.59 µM
13,O=C(c1ccc(F)cc1Cl)N1CCC(c2nc3ccccc3s2)CC1 [D5],18.2 µM
14,FC(F)(F)c1ccnc(NC2CCN(Cc3ccccc3)CC2)n1 [B124],> 90.4 µM
15,CCCC(C)N1CCC(N(Cc2ccccc2)C(=O)Nc2ccc(Br)cc2C)CC1 (stereo not drawn) [A165],9.43 µM
16,CCCCN1CCC(N(Cc2ccccc2)C(=O)Nc2ccc(F)c(C(F)(F)F)c2)CC1 [A26],0.163 µM
17,Cc1cc(C)cc(C(=O)N2CCCC(c3nc4ccccc4s3)C2)c1 (stereo not drawn) [D32],> 67.6 µM
18,O=C(Nc1cccc(SC(F)(F)F)c1)NC1CCN(Cc2ccccc2)CC1 [B8],16.6 µM
19,O=C(Nc1ccn(Cc2ccccn2)n1)NC1CCN(Cc2ccccc2)CC1 [B33],> 55.4 µM
20,O=C(Nc1cc(F)cc(C(F)(F)F)c1)N(Cc1ccccc1)C1CCN(Cc2ccc(Cc3ccccc3)cc2)CC1 [A211],> 21.8 µM
21,"CCCN1CCC(N(Cc2cc(F)cc(C(F)(F)F)c2)C(=O)Nc2cccc(C(F)(F)F)c2)CC1 [A68, 1-(3-Fluoro-5-(Trifluoromethyl)Benzyl)-1-(1-Propylpiperidin-4-yl)-3-(3-(Trifluoromethyl)Phenyl)Urea]",0.488 µM
22,O=C(Nc1ccc(F)cc1)NC1CCN(Cc2ccccc2)CC1 [B43],> 64.5 µM
23,CCOc1ccc(C(=O)NCC(=O)N2CCC(c3nc4ccccc4s3)CC2)cc1 [D33],> 67.6 µM

row,Compound,IC50
1,CC(=O)c1cccc(NC(=O)NC2CCN(Cc3ccccc3)CC2)c1 [B102],> 70.6 µM
2,O=C(Nc1cccc(F)c1)NC1CCN(Cc2ccccc2)CC1 [B64],> 67.6 µM
3,CC1CN(Cc2ccccc2)CCC1N(C)C(=O)Nc1cccc2cnccc12 (stereo not drawn) [B23],> 113 µM
4,CC(=O)N1CCC(N(Cc2ccco2)C(=O)Nc2ccc(Br)cc2)CC1 [B73],> 67.6 µM
5,CCCC(C)N1CCC(N(Cc2cccc(NC(=O)CCl)c2)C(=O)Nc2cccc(C(F)(F)F)c2)CC1 (stereo not drawn) [A17],0.0951 µM
6,CCc1ccc(NC(=O)NC2CCN(C(C)C)CC2)cc1 [B62],> 67.6 µM
7,CC(=O)N1CCC(N(Cc2ccco2)C(=O)Nc2cccc(C)c2)CC1 [B72],> 67.6 µM
8,CCCC(C)N1CCC(N(Cc2ccccc2)C(=O)Nc2cccc(S(F)(F)(F)(F)F)c2)CC1 (stereo not drawn) [A25],0.155 µM
9,CCCC(C)N1CCC(N(Cc2cccc(CNC(=O)CCl)c2)C(=O)Nc2cccc(C(F)(F)F)c2)CC1 (stereo not drawn) [A256],> 60.4 µM
10,"CCCCN(C(=O)Nc1cccc(C(F)(F)F)c1)C1CCN(CCC)CC1 [A96, 1-Butyl-1-(1-Propylpiperidin-4-yl)-3-(3-(Trifluoromethyl)Phenyl)Urea]",1.33 µM
11,C#CCCCN1CCC(N(Cc2ccccc2NC(=O)CC)C(=O)Nc2ccc(Cl)c(Cl)c2)CC1 [A199],> 14.5 µM
12,CCOc1ccccc1NC(=O)N(Cc1ccc(C)o1)C1CCN(C(C)=O)CC1 [B88],> 67.6 µM
13,C#CCCCN1CCC(N(Cc2ccccc2NC(=O)CCl)C(=O)Nc2ccc(Cl)c(Cl)c2)CC1 [A252],> 6.46 µM
14,O=C(Nc1cc(F)cc(C(F)(F)F)c1)N(Cc1ccccc1)C1CCN(Cc2cnccn2)CC1 [A226],> 26.6 µM
15,CCCC(C)N1CCC(N(Cc2ccccc2)C(=O)Nc2ccc(S(=O)(=O)NC(C)=O)cc2)CC1 (stereo not drawn) [A283],> 72.1 µM
16,C=CC(=O)NCCCN(C(=O)Nc1cccc(C(F)(F)F)c1)C1CCN(C(C)CCC)CC1 (stereo not drawn) [A134],3.34 µM
17,CCCC(C)N1CCC(N(Cc2ccccc2)C(=O)Nc2cc(OC)cc(OC)c2)CC1 (stereo not drawn) [A273],> 68 µM
18,CCCC1CCC(N(Cc2ccccc2)C(=O)Nc2cccc(C(F)(F)F)c2)CC1 (stereo not drawn) [A232],> 38.7 µM
19,CCCC(C)N1CCC(N(Cc2ccccc2)C(=O)Nc2ccc(Cl)nc2)CC1 (stereo not drawn) [A277],> 68.8 µM
20,"CCCN1CCC(N(CCC(C)C)C(=O)Nc2cccc(C(F)(F)F)c2)CC1 [A130, 1-Isopentyl-1-(1-Propylpiperidin-4-yl)-3-(3-(Trifluoromethyl)Phenyl)Urea]",2.96 µM
21,COc1cc(C(=O)N2CCC(c3nc4ccccc4s3)CC2)cc(OC)c1OC [D2],8.53 µM
22,C=CC(=O)NCc1ccccc1CN(C(=O)Nc1cccc(C(F)(F)F)c1)C1CCN(C(C)CCC)CC1 (stereo not drawn) [A239],> 51.2 µM
23,CC1CC(NC(=O)Nc2cnn(C)c2)CCN1Cc1ccccc1 (stereo not drawn) [B42],> 64.4 µM

row,Compound,IC50
1,Cn1c(CN2CCC(N(Cc3ccccc3)C(=O)Nc3cc(F)cc(C(F)(F)F)c3)CC2)nc2ccccc21 [A203],> 20.2 µM
2,1-(1-(2-Methylbenzyl)Piperidin-4-yl)-3-(3-(Trifluoromethyl)Phenyl)Urea [A137],3.8 µM
3,CCCC(C)N1CCC(N(Cc2ccccc2)C(=O)Nc2ccc(C)c([N+](=O)[O-])c2)CC1 (stereo not drawn) [A36],0.206 µM
4,CN(C)c1ccc(CN2CCC(N(Cc3ccccc3)C(=O)Nc3cc(F)cc(C(F)(F)F)c3)CC2)cc1 [A209],> 21.5 µM
5,O=C(c1ccc(F)cc1F)N1CCC(c2nc3ccccc3s2)CC1 [D11],30.6 µM
6,CCCN1CCC(NC(=O)Nc2ccc(Cl)c(Cl)c2)CC1 [B56],> 67.6 µM
7,CCCC(C)N1CCC(N(Cc2ccccc2)C(=O)Nc2ccc3c(c2)CCC3)CC1 (stereo not drawn) [A8],0.0767 µM
8,CCCC(C)N1CCC(N(Cc2ccccc2)C(=O)Nc2ccc(F)c(-c3nc4ccccc4o3)c2)CC1 (stereo not drawn) [A268],> 67.1 µM
9,COc1cc(SC)ccc1C(=O)N1CCC(c2nc3ccccc3s2)CC1 [D21],> 67.6 µM
10,CCCC(C)N1CCC(N(Cc2ccccc2)C(=O)Nc2ccc3ncccc3c2)CC1 (stereo not drawn) [A207],> 21 µM
11,CCc1ccc(NC(=O)NC2CCN(Cc3ccccc3)CC2)cc1 [B52],> 67.6 µM
12,CCCC(C)N1CCC(N(Cc2ccccc2)C(=O)Nc2cc(F)cc(C(F)(F)F)c2)CC1 (stereo not drawn) [A6],0.058 µM
13,COc1cc(C(=O)N2CCCC(c3nc4ccccc4s3)C2)cc(OC)c1OCC(N)=O (stereo not drawn) [D24],> 67.6 µM
14,1-Benzyl-1-(1-(Cyclopropylmethyl)Piperidin-4-yl)-3-(3-(Trifluoromethyl)Phenyl)Urea [A30],0.178 µM
15,Cc1cc(C)cc(C(=O)N2CCC(c3nc4ccccc4s3)CC2)c1 [D10],25.4 µM
16,CCCC(C)N1CCC(N(Cc2ccccc2)C(=O)Nc2ccc([N+](=O)[O-])c(C(F)(F)F)c2)CC1 (stereo not drawn) [A237],> 48.4 µM
17,"O=C(Nc1ccccc1)NC1CCN(Cc2ccccc2)CC1 [B20, 1-(1-Benzylpiperidin-4-yl)-3-Phenylurea]",< 0.0041 µM
18,CCCC(C)N1CCC(N(Cc2ccccc2)C(=O)Nc2cc(Br)ccc2Cl)CC1 (stereo not drawn) [A267],> 66.9 µM
19,CCCC(C)N1CCC(N(Cc2ccccc2)C(=O)Nc2ccc(OC)c(F)c2)CC1 (stereo not drawn) [A109],2.2 µM
20,Cc1ccc(CN(C(=O)Nc2ccccc2F)C2CCN(Cc3ccccc3)CC2)o1 [B94],> 67.6 µM
21,CCCC(C)N1CCC(N(Cc2ccccc2)C(=O)Nc2ccc(C3CCCCC3)cc2)CC1 (stereo not drawn) [A110],2.21 µM
22,"O=C(Nc1cccc(C(F)(F)F)c1)NC1CCN(C(=O)c2ccccc2)CC1 [A306, 1-(1-Benzoylpiperidin-4-yl)-3-(3-(Trifluoromethyl)Phenyl)Urea]",> 98.1 µM
23,O=C(c1cccc(F)c1)N1CCC(c2nc3ccccc3s2)CC1 [D12],31.4 µM
